Experimental findings from US9957257B2, “Amide compounds as 5-HT4 receptor agonists” (SUVEN LIFE SCIENCES LIMITED, priority 2015, dated 2018) are described below.

The target in one series is T1, hERG (Homo sapiens, UniProt Q12809).
T1 construct: expressed in transfected cells; host or cells: HEK293 (hERG-HEK293)
The series is described as follows: Automated hERG patch clamp assay. Format: cell-based. The conditions noted are these: hERG-HEK293 cells, whole cell patch clamp. As for the experimental part: To study the cardiac safety of test compounds using automated hERG patch clamp assay, hERG-HEK293 cells were grown to 70% confluency and were harvested using accumax. The cells were then suspended in complete media and were incubated at 37° C. and 5% CO2 for 30 minutes before using these cells for the whole cell patch clamp assay. Whole cell patch clamp recordings were conducted on Nanion's Patchliner using I-V protocol of voltage step from holding potential of −80 mV to +40 mV for 500 ms and then to test potential for 500 ms and back to holding potential of −80 mV. Pulses were elicited every 10 seconds. Each test compound concentration was incubated for 5 minutes. Data analysis was done by plotting the raw data using Igor Pro software and IC50 values were calculated. Cells with resistance >1 Gohms and tail currents of >200 pA were taken into consideration for data analysis. Quinidine was used as positive control.
For orientation: Block of hERG is tested as a sign of cardiac risk.

A short description of series [1]: Rodent brain penetration study. Format: in vivo, Male Wistar rats. The conditions noted are these: male, Wistar, rat, 3 mg/kg, oral (gavage), read-out: Single dose Brain Penetration (Cb/Cp). As to the method:
Male Wistar rats (225±25 grams) were used as experimental animals. Three animals were housed in each cage. Animals were given water and food ad libitum throughout the experiment and maintained on a 12 hours light/dark cycle. Brain penetration was determined in discrete manner in rats. One day prior to dosing day, male wistar rats (225-250 grams) were acclimatized. After acclimatization the rats were grouped according to their weight. In each group, 3 animals were kept in individual cage and allowed free access to food and water. At each time point (0.50, 1 and 2 hours) n=3 animals were used. The test compounds were suitably preformulated and administered orally at (free base equivalent) 3 mg/kg. Blood samples were removed via, cardiac puncture by using isoflurane anesthesia. The animals were sacrificed to collect brain tissue. Plasma was separated and brain samples were homogenized and stored frozen at −20° C. until analysis. The concentrations of the test compounds in plasma and brain were determined using LC-MS/MS method. The test compounds were quantified in plasma and brain homogenate by qualified LC-MS/MS method using suitable extraction technique. The test compounds were quantified in the calibration range of 1-500 ng/mL in plasma and brain homogenate. Study samples were analyzed using calibration samples in the batch and quality control samples spread across the batch. Extent of brain-plasma ratio was calculated (Cb/Cp).

The test system of the next series is acetylcholine. The series is described as follows: Modulation of acetylcholine from the frontal cortex (microdialysis). The series is classed as in vivo, male Wistar rats. Conditions: p.o. An excerpt:
Male Wistar rats (240-300 grams) were stereotaxically implanted with a microdialysis guide cannula in frontal cortex (AP: +3.2 mm, ML: −3.2 mm, DV: −1.5 mm). Co-ordinates were taken according to Paxinos and Watson (2004) with reference points taken from bregma and vertical from the skull. The rats were allowed to recover individually for four to five days in a round bottom Plexiglas bowl with free access to feed and water.
One day prior to the microdialysis experiment, rats were connected to a dual quartz lined two-channel liquid swivel (Instech, UK) on a counter balance lever arm, which allowed unrestricted movements of the animal. Sixteen hour before start of study, a pre-equilibrated microdialysis probe (3 mm dialysis membrane) was inserted into the frontal cortex through the guide cannula.
A stabilization period of 2 hours was maintained and five basal samples were collected at 20 minutes intervals. The test compound, Example 50 or vehicle was administered and dialysate samples were collected at 20 minutes interval for an additional period of 4 hours. Dialysates were stored below −70° C. until quantitation of acetylcholine.
Acetylcholine in dialysate was quantified in the calibration range of 0.103 nmol-103.491 nmol using LC-MS/MS method.
All microdialysis data were plotted as percent change from mean dialysate basal concentrations with 100% defined as the average of five pre-dose values. The AUC was calculated by trapezoidal rule using WinNonlin (5.0.1 version, Pharsight Corp. CA). The statistical significance between the mean AUC values of treatment groups with vehicle was calculated using one-way ANOVA followed by Dunnett's test. For each treatment group, the percent increase in acetylcholine levels was compared to the vehicle group using two-way analysis of variance (time and treatment), followed by Bonferroni's multiple comparison test. Statistical significance was considered at a p value less than 0.05.
In-correct probe placement was considered as criteria to reject the data from animal.

A further series in a line: Radial arm maze. The conditions noted are these: p.o. Format: in vivo, rats. An excerpt:
The cognition enhancing properties of test compounds of this invention were estimated by using this model.
Radial arm maze consists of a central hub of 45 cm diameter. Each arm was of dimension 42.5×15×24 cm. The maze was elevated to a height of 1 m above the ground. The animals were placed on a restricted diet until they reached approximately 85% of their free feeding weight. During this diet restriction period animals were habituated to the novel feed (pellets). Once the rats reached approximately 85% of their free feeding weight, rats were habituated to the maze on the 1st and 2nd day. […] Animals were randomized on day 2. On the subsequent days the treatment was given as per the allotment. Each animal was introduced into the maze individually for a period of 10 minutes. The arms were baited only once and the animal had to learn the rule that repeated arm entries would not be rewarded. The trial ended once the rat had visited 16 arms or 10 minutes were over or all the pellets were eaten. The arm entries were recorded using the software. Once the trial was over the rat was removed and the maze was cleaned using soap water.

T1 sequence (Q12809 whole entry): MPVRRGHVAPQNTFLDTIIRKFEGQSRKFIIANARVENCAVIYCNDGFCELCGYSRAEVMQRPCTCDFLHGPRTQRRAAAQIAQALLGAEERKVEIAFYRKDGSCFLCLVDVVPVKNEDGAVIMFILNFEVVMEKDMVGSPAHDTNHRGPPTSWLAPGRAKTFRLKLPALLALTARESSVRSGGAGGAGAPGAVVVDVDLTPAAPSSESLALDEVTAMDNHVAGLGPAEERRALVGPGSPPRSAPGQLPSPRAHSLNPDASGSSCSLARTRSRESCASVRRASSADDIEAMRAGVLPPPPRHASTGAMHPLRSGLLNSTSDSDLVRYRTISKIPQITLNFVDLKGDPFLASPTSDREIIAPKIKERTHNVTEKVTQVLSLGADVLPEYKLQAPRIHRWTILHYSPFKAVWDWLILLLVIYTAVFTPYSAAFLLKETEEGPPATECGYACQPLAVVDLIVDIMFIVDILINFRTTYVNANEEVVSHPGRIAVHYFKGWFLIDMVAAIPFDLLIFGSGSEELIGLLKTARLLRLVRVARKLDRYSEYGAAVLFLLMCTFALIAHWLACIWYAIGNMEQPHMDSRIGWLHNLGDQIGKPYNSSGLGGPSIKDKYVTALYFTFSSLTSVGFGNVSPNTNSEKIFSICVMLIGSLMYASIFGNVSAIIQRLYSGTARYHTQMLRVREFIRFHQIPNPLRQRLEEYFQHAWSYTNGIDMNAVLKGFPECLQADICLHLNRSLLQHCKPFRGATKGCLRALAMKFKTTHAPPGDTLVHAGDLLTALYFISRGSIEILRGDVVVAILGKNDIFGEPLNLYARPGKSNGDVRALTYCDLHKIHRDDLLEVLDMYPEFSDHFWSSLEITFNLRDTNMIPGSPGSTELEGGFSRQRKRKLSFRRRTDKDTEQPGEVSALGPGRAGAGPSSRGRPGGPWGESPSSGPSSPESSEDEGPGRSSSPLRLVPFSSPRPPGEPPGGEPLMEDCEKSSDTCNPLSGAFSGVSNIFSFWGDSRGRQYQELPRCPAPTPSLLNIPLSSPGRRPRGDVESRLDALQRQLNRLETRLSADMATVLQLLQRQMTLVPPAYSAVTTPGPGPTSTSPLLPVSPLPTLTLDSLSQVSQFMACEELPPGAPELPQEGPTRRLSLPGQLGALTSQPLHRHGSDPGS

Take `CC(C)(O)CN1CCC(F)(CNC(=O)c2cc(Cl)c(N)c3ccoc23)CC1` [Example 50, 4-Amino-5-chloro-N-{[4-fluoro-1-(2-hydroxy-2-methylpropyl)-4-piperidinyl]methyl}benzofuran-7-carboxamide L(+)-tartarate]: the IC50 – broadly, the midpoint of a concentration-inhibition curve – at hERG was > 10 µM. Moreover, the Kp in series [1] is 1.48 ± 0.26. Besides, in the series on acetylcholine (10.0 mg/kg), the “Acetylcholine levels, frontal cortex, % of pre-dose levels” value is listed as 204% and the “Area under the curve (AUC), frontal cortex acetylcholine” value is “significant increase”. Moreover, in the series with acetylcholine (across doses), the “acetylcholine levels of frontal cortex” value was “dose-dependent increase”. The “Reversal of Scopolamine Induced amnesia - Effective dose range” value in the series “Radial arm maze” was 1 mg/kg, p.o.
